# Experimental data reported in US6383520B1, “Fine powder of L-α-aminoadipic acid derivative, oral solid preparations containing the same, and method for treatment of bulk powders” (Chugai Seiyaku Kabushiki Kaisha, priority 1998, dated 2002).
# Assays:
# [1] = Average particle diameter by dry particle size distribution measurement (AEROSIZER mach 2); format: physicochemical; settings: dry particle size distribution measurement after grinding
# Text: The average particle diameter of the finely ground powder of MX-68 in the present invention can be measured by using, for example, a dry particle size distribution measurement apparatus (AEROSIZER mach 2, manufactured by AMHERST PROCESS INSTRUMENTS, INC) as will be described in Example 1 hereinafter. The finely ground powder of MX-68 according to the present invention has an average particle diameter of from 5 to 25 μm. When the average particle diameter is less than 5 μm, the finely ground powder is liable to be charged with static electricity and thus there arises a high possibility of dusting and adhesion. When the average particle diameter exceeds 25 μm, on the other hand, it is feared that the solubility and/or content uniformity of MX-68 are adversely affected. It is preferable that the average particle diameter ranges from 8 to 15 μm, still preferably from 9 to 11 μm.
# A crystalline bulk powder of MX-68 obtained by the method described in Japanese Laid-Open Patent Publication No. 6-239863(A)) (manufactured by Chugai Pharmaceutical Co., Ltd.) was manually ground in an agate mortar. Separately, the same bulk powder was ground with a centrifugal grinder (ZM-1, manufactured by Nippon Seiki Seisakusho) by using a screen (pore size: 0.2 mm) at 20,000 rpm. Separately, the same bulk powder was ground with a micro-labo jet mill (A-O Jet Mill, manufactured by Seishin Kigyo). The particle diameter of each finely ground powder of MX-68 thus obtained was measured by using a dry particle size distribution measurement apparatus (AEROSIZER mach 2, manufactured by AMHERST PROCESS INSTRUMENTS, INC) and the average particle diameter was determined. As a result, the average particle diameter could be controlled to 9 to 11 μm by each grinding method (Table 1).
# [2] = Thermal analysis: differential scanning calorimetry, endotherm; format: physicochemical; settings: DSC; for endotherm compared with the unground bulk powder (in words): before and after the grinding treatment; for Endotherm: temperature rise 5° C./min
# Method: The finely ground powder of MX-68 sustaining the crystallinity according to the present invention means a finely ground powder of MX-68 which has, both before and after the grinding treatment, parts showing polarization when observed under a polarization microscope, and has an endotherm of from 25 to 50 mJ/mg, preferably from […] at an endothermic peak appearing, for example, at 185 to 195° C. in the differential scanning calorimetry as will be described Example 2.
# A crystalline bulk powder of MX-68 obtained by the method described in Japanese Laid-Open Patent Publication No. 6-239863(A)) (manufactured by Chugai Pharmaceutical Co., Ltd.) and the finely ground powders of MX-68 obtained by the grinding methods described in Example 1 were thermally analyzed to thereby determine the differential scanning calories (DSC, temperature rise: 5° C./min). Then the endotherm (caused by the endothermic reaction occurring in association with the conversion of crystalline particles in the crystalline bulk powder into the amorphous state) was calculated.
# [3] = Storage stability (60° C., 2 weeks); format: physicochemical; settings: for storage stability after the grinding treatment (in words): 60° C.; for Residual ratio: storage 60° C.
# Method: A comparison was made on the storage stability (60° C., 2 weeks) of the crystalline bulk powder of MX-68 obtained by the method described in Japanese Laid-Open Patent Publication No. 6-239863(A)) (manufactured by Chugai Pharmaceutical Co., Ltd.), the mortar-ground bulk powder and the centrifugal-ground bulk powder obtained in Example 1.
# [4] = Pharmacokinetics after oral administration to dogs, MX-68 concentration in the blood; format: in vivo; settings: 1 mg/kg
# [5] = Dissolution test, method 2 (paddle method), Japanese Pharmacopoeia; format: physicochemical; settings: compared with the amorphous bulk powder
# Text: Tablets of the following formula were produced by using the crystalline bulk powder of MX-68 obtained by the method described in Japanese Laid-Open Patent Publication No. 6-239863(A)) (manufactured by Chugai Pharmaceutical Co., Ltd.), an amorphous bulk powder and the centrifugal.-ground bulk powder obtained in Example 1. More particularly, MX-68, lactose, crystalline cellulose and croscarmellose sodium were dry-mixed. After adding water, the mixture was kneaded and granulated. Then the granulated matter was dried at 50° C., mixed with magnesium stearate, and press molded to give tablets of 6 mm in diameter. In accordance with the method 2 (paddle method) of the dissolution test as specified in Japanese Pharmacopoeia, these tablets were subjected to the dissolution test using 500 ml of JP official solution 1 at 37° C.
Average particle diameter [1] [μm],endotherm compared with the unground bulk powder (in words) [2],Endotherm [2] [mJ/mg],Residual ratio ([3]; listed as Motor-ground bulk powder) [%],Residual ratio [3] [%],absorbability (in words) ([4]; compared with the unground bulk powder),solution speed (in words) [5],bioavailability (in words) ([4]; compared with the amorphous bulk powder),Structure (SMILES),storage stability after the grinding treatment (in words) [3]
9.3,a decrease in the endotherm,22.3,90.9,,,,,Nc1nc(N)c2nc(CN3CCSc4cc(C(=O)N[C@@H](CCCC(=O)O)C(=O)O)ccc43)cnc2n1 [Mortar-ground bulk powder],a decrease in stability
,,,,,higher absorbability,,,"Nc1nc(N)c2nc(CN3CCSc4cc(C(=O)N[C@@H](CCCC(=O)O)C(=O)O)ccc43)cnc2n1 [amorphous bulk MX-68 powder, N-(1-((2,4-diamino-6-pteridinyl)methyl)-3,4-dihydro-2H-1,4-benzothiazine-7-carbonyl)L-α-aminoadipic acid]",
,,33.5,,95.3,,lower solution speed,lower bioavailability,Nc1nc(N)c2nc(CN3CCSc4cc(C(=O)N[C@@H](CCCC(=O)O)C(=O)O)ccc43)cnc2n1 [Unground bulk powder],

# The remaining lines, values behind:
Structure (SMILES),Average particle diameter [1] [μm],endotherm compared with the unground bulk powder (in words) [2],Endotherm [2] [mJ/mg],Residual ratio ([3]; listed as Motor-ground bulk powder) [%],Residual ratio [3] [%],absorbability (in words) ([4]; compared with the unground bulk powder),solution speed (in words) [5],bioavailability (in words) ([4]; compared with the amorphous bulk powder),storage stability after the grinding treatment (in words) [3]
"Nc1nc(N)c2nc(CN3CCSc4cc(C(=O)N[C@@H](CCCC(=O)O)C(=O)O)ccc43)cnc2n1 [Centrifugal-ground bulk powder, N-(1-((2,4-diamino-6-pteridinyl)methyl)-3,4-dihydro-2H-1,4-benzothiazine-7-carbonyl)L-α-aminoadipic acid]",11.4,no change in the endotherm,32.8,,96.3,,,,sustained stability comparable to the unground bulk powder
"Nc1nc(N)c2nc(CN3CCSc4cc(C(=O)N[C@@H](CCCC(=O)O)C(=O)O)ccc43)cnc2n1 [Jet mill-ground bulk powder, N-(1-((2,4-diamino-6-pteridinyl)methyl)-3,4-dihydro-2H-1,4-benzothiazine-7-carbonyl)L-α-aminoadipic acid]",10.7,no change in the endotherm,33.2,,,,,,
